Source: patent publication US7138361B2, “Herbicidal heterocycles” (E. I. du Pont de Nemours and Company, priority 2000, dated 2006)

How the values were obtained:
Format in all cases: in vivo
[1] = test system: goosegrass (Eleusine indica); test: Test C preemergence; settings: for Plant response rating (0 to 100), Goosegrass: visual evaluation after 12 to 14 days
In short: (§1)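 Pre- and postemergence treatments used a non-phytotoxic solvent/surfactant formulation; post-treated plants measured 2 to 18 cm. Greenhouse hold 12–14 d; % control estimated visually relative to controls.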

Nightshade = test: Test C preemergence
[2] = test system: lambsquarters (Chenopodium album); test: Test C preemergence; settings: for Plant response rating (0 to 100), Lambsquarters: visual evaluation after 12 to 14 days
In short: as §1

[3] = test system: woolly cupgrass (Eriochloa villosa); test: Test C preemergence; settings: for Plant response rating (0 to 100), Cupgrass, Woolly: visual evaluation after 12 to 14 days
In short: as §1

[4] = test system: common ragweed (Ambrosia elatior); test: Test C preemergence; settings: for Plant response rating (0 to 100), Ragweed, Common: visual evaluation after 12 to 14 days
In short: as §1

[5] = test system: Surinam grass (Brachiaria decumbens); test: Test C preemergence; settings: for Plant response rating (0 to 100), Surinam grass: visual evaluation after 12 to 14 days
In short: as §1

soybean (Glycine max) = test: Test C preemergence
In short: as §1

[6] = test system: pigweed (Amaranthus retroflexus); test: Test C preemergence; settings: for Plant response rating (0 to 100), Pigweed: visual evaluation after 12 to 14 days
In short: as §1

[7] = test system: crabgrass (Digitaria sanguinalis); test: Test C preemergence; settings: for Plant response rating (0 to 100), Crabgrass: visual evaluation after 12 to 14 days
In short: as §1

[8] = test system: cocklebur (Xanthium strumarium); test: Test C preemergence; settings: for Plant response rating (0 to 100), Cocklebur: visual evaluation after 12 to 14 days
In short: as §1

[9] = test system: lambsquarters (Chenopodium album); test: Test B preemergence
In short: (§2)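 Preemergence: seeds planted and treated with test chemicals in non-phytotoxic solvent with surfactant; postemergence on plants 2–18 cm (1- to 4-leaf stage). Kept in greenhouse 13–15 days, then visually rated against controls on a 0 (no effect) to 100 (complete control) scale.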

corn (Zea mays) = test: Test B preemergence
In short: as §2

[10] = test system: morning glory (Ipomoea hederacea); test: Test B preemergence
In short: as §2

[11] = test system: barnyardgrass (Echinochloa crus-galli); test: Test B preemergence
In short: as §2

[12] = test system: Surinam grass (Brachiaria decumbens); test: Test B preemergence
In short: as §2

[13] = test system: velvetleaf (Abutilon theophrasti); test: Test B preemergence
In short: as §2

rice (Oryza saliva) = test: Test B preemergence
In short: as §2

[14] = test system: pigweed (Amaranthus retroflexus); test: Test B preemergence
In short: as §2

[15] = test system: crabgrass (Digitaria sanguinalis); test: Test B preemergence
In short: as §2

[16] = test system: cocklebur (Xanthium strumarium); test: Test B preemergence
In short: as §2

[17] = test system: giant foxtail (Setaria faberii); test: Test B preemergence
In short: as §2

[18] = Preemergence, Rate 500 g/ha, scale 0 to 100
[19] = Rate 62 g/ha, scale 0 to 100, 0 no effect, 100 complete control
[20] = preemergence, Rate 125 g/ha, scale 0 to 100, 0 no effect, 100 complete control
[21] = Rate 125 g/ha, scale 0 to 100, 0 no effect, 100 complete control
[22] = Preemergence, Rate 500 g/ha, scale 0 to 100, 0 no effect, 100 complete control
[23] = preemergence, Rate 62 g/ha, scale 0 to 100
[24] = preemergence, Rate 250 g/ha, scale 0 to 100, 0 no effect, 100 complete control
[25] = preemergence, Rate 125 g/ha, scale of 0 to 100 where 0 is no effect and 100 is complete control, 13 to 15 days

CCC(C)c1ccn(C2SCN(c3cccc(OC(F)(F)F)c3)C2=O)n1 (centres unmarked) [Compound 32]
Plant response rating, Goosegrass [1, 18]: 100
Plant response rating, Goosegrass [1, 19]: 100
Plant response rating (0 to 100), Goosegrass ([1]; preemergence, Rate 250 g/ha): 100
Plant response rating, Goosegrass [1, 20]: 100
Plant response rating, Nightshade (Nightshade; Rate 62 g/ha; scale 0 to 100, 0 no effect, 100 complete control): 50
Plant response rating, Nightshade (Nightshade; [21]): 50
Plant response rating, Nightshade (Nightshade; Rate 500 g/ha, scale 0 to 100): 100
Plant response rating, Lambsquarters [2, 18]: 100
Plant response rating, Lambsquarters [2, 19]: 100
Plant response rating (0 to 100), Lambsquarters ([2]; preemergence, Rate 250 g/ha): 100
Plant response rating, Lambsquarters [2, 20]: 100
Plant response rating, Cupgrass, Woolly [3, 18]: 90
Plant response rating, Cupgrass, Woolly [3, 19]: 60
Plant response rating (0 to 100), Cupgrass, Woolly ([3]; preemergence, Rate 250 g/ha): 90
Plant response rating, Cupgrass, Woolly [3, 20]: 70
Plant response rating, Ragweed, Common [4, 18]: 100
Plant response rating, Ragweed, Common [4, 19]: 0
Plant response rating (0 to 100), Ragweed, Common ([4]; preemergence, Rate 250 g/ha): 90
Plant response rating, Ragweed, Common [4, 20]: 0
Plant response rating, Surinam grass [5, 18]: 90
Plant response rating, Surinam grass [5, 19]: 70
Plant response rating (0 to 100), Surinam grass ([5]; preemergence, Rate 250 g/ha): 80
Plant response rating, Surinam grass [5, 20]: 80
Plant response rating, Soybean (soybean (Glycine max); [18]): 60
Plant response rating, Soybean (soybean (Glycine max); [19]): 50
Plant response rating (0 to 100), Soybean (soybean (Glycine max); preemergence, Rate 250 g/ha, visual evaluation after 12 to 14 days): 60
Plant response rating, Soybean (soybean (Glycine max); [20]): 50
Plant response rating, Pigweed [6, 18]: 80
Plant response rating, Pigweed [6, 19]: 70
Plant response rating (0 to 100), Pigweed ([6]; preemergence, Rate 250 g/ha): 70
Plant response rating, Pigweed [6, 20]: 20
Plant response rating, Crabgrass [7, 18]: 100
Plant response rating, Crabgrass [7, 19]: 100
Plant response rating (0 to 100), Crabgrass ([7]; preemergence, Rate 250 g/ha): 100
Plant response rating, Crabgrass [7, 20]: 100
Plant response rating, Cocklebur [8, 18]: 0
Plant response rating, Cocklebur [8, 19]: 0
Plant response rating (0 to 100), Cocklebur ([8]; preemergence, Rate 250 g/ha): 0
Plant response rating, Lambsquarters [9, 22]: 100
Plant response rating, Lambsquarters [9, 20]: 100
Plant response rating, Corn (corn (Zea mays); [22]): 0
Plant response rating, Corn (corn (Zea mays); [20]): 0
Plant response rating, Morningglory [10, 22]: 0
Plant response rating, Barnyardgrass [11, 22]: 100
Plant response rating, Barnyardgrass [11, 20]: 80
Plant response rating, Surinam grass [12, 22]: 60
Plant response rating, Surinam grass [12, 20]: 40
Plant response rating, Velvetleaf [13, 22]: 0
Plant response rating, Rice (rice (Oryza saliva); [22]): 0
Plant response rating, Pigweed [14, 22]: 100
Plant response rating, Crabgrass [15, 22]: 100
Plant response rating, Crabgrass [15, 20]: 60
Plant response rating, Cocklebur [16, 22]: 0
Plant response rating, Foxtail, Giant [17, 22]: 100
Plant response rating, Foxtail, Giant [17, 20]: 70

CCOc1cccc(N2CCC(n3ccc(C(C)C)n3)C2=O)c1 (centres unmarked) [Compound 128]
Plant response rating, Goosegrass [1, 21]: 100
Plant response rating, Goosegrass [1, 23]: 100
Plant response rating (0 to 100), Goosegrass ([1]; preemergence, Rate 500 g/ha): 100
Plant response rating, Goosegrass [1, 24]: 100
Plant response rating, Nightshade (Nightshade; Rate 62 g/ha, scale 0 to 100): 20
Plant response rating, Nightshade (Nightshade; Rate 125 g/ha; scale 0 to 100, 0 no effect, 100 complete control): 40
Plant response rating, Nightshade (Nightshade; Rate 250 g/ha, scale 0 to 100, 0 no effect, 100 complete control): 90
Plant response rating, Lambsquarters [2, 21]: 100
Plant response rating, Lambsquarters [2, 23]: 100
Plant response rating (0 to 100), Lambsquarters ([2]; preemergence, Rate 500 g/ha): 100
Plant response rating, Lambsquarters [2, 24]: 100
Plant response rating, Cupgrass, Woolly [3, 21]: 100
Plant response rating, Cupgrass, Woolly [3, 23]: 100
Plant response rating (0 to 100), Cupgrass, Woolly ([3]; preemergence, Rate 500 g/ha): 100
Plant response rating, Cupgrass, Woolly [3, 24]: 100
Plant response rating, Ragweed, Common [4, 21]: 100
Plant response rating, Ragweed, Common [4, 23]: 100
Plant response rating (0 to 100), Ragweed, Common ([4]; preemergence, Rate 500 g/ha): 100
Plant response rating, Ragweed, Common [4, 24]: 100
Plant response rating, Surinam grass [5, 21]: 100
Plant response rating, Surinam grass [5, 23]: 90
Plant response rating (0 to 100), Surinam grass ([5]; preemergence, Rate 500 g/ha): 100
Plant response rating, Surinam grass [5, 24]: 100
Plant response rating, Soybean (soybean (Glycine max); [24]): 60
Plant response rating, Pigweed [6, 21]: 70
Plant response rating, Pigweed [6, 23]: 70
Plant response rating (0 to 100), Pigweed ([6]; preemergence, Rate 500 g/ha): 100
Plant response rating, Pigweed [6, 24]: 80
Plant response rating, Crabgrass [7, 21]: 100
Plant response rating, Crabgrass [7, 23]: 100
Plant response rating (0 to 100), Crabgrass ([7]; preemergence, Rate 500 g/ha): 100
Plant response rating, Crabgrass [7, 24]: 100
Plant response rating, Cocklebur [8, 21]: 10
Plant response rating, Cocklebur [8, 23]: 0
Plant response rating (0 to 100), Cocklebur ([8]; preemergence, Rate 500 g/ha): 70
Plant response rating, Cocklebur [8, 24]: 40
Plant response rating, Lambsquarters [9, 22]: 100
Plant response rating, Lambsquarters [9, 25]: 100
Plant response rating, Corn (corn (Zea mays); [22]): 60
Plant response rating, Corn (corn (Zea mays); [25]): 30
Plant response rating, Morningglory [10, 22]: 90
Plant response rating, Morningglory [10, 25]: 70
Plant response rating, Barnyardgrass [11, 22]: 100
Plant response rating, Barnyardgrass [11, 25]: 100
Plant response rating, Surinam grass [12, 22]: 100
Plant response rating, Surinam grass [12, 25]: 100
Plant response rating, Velvetleaf [13, 22]: 50
Plant response rating, Velvetleaf [13, 25]: 0
Plant response rating, Rice (rice (Oryza saliva); [22]): 100
Plant response rating, Rice (rice (Oryza saliva); [25]): 100
Plant response rating, Pigweed [14, 22]: 100
Plant response rating, Pigweed [14, 25]: 100
Plant response rating, Crabgrass [15, 22]: 100
Plant response rating, Crabgrass [15, 25]: 100
Plant response rating, Cocklebur [16, 22]: 60
Plant response rating, Cocklebur [16, 25]: 0
Plant response rating, Foxtail, Giant [17, 22]: 100
Plant response rating, Foxtail, Giant [17, 25]: 100
